Experimental findings from article PMC8954792 (Viruses, 2022) are described below.

Structures are written as SMILES.

Data set [1] has as its system SARS-CoV-2 PsV. Nature of the data set: microbe, parasite or virus in culture. It counts as cell-based. The following applies: Severe acute respiratory syndrome coronavirus 2.
The subject of data set [2] is pseudotyped SARS-CoV-2 Alpha (B.1.1.7). Nature of the data set: microbe, parasite or virus in culture. It counts as cell-based. The following applies: Severe acute respiratory syndrome coronavirus 2, Caco-2.
The test system of data set [3] is pseudotyped SARS-CoV-2 Beta (B.1.351). Briefly: microbe, parasite or virus in culture. It counts as cell-based. The conditions noted are these: Severe acute respiratory syndrome coronavirus 2, Caco-2.
Data set [4] has as its system pseudotyped SARS-CoV-2 Gamma (P.1). Nature of the data set: microbe, parasite or virus in culture. The data set is classed as cell-based. The following applies: Severe acute respiratory syndrome coronavirus 2, Caco-2.
Data set [5] has as its system pseudotyped SARS-CoV-2 Omicron (B.1.1.529). Briefly: microbe, parasite or virus in culture. The following applies: Severe acute respiratory syndrome coronavirus 2, Caco-2. It counts as cell-based.
For data set [6], the system named is authentic SARS-CoV-2 WT (nCoV-SH01). Nature of the data set: microbe, parasite or virus in culture. The data set is classed as cell-based. The following applies: Severe acute respiratory syndrome coronavirus 2, Vero C1008.
For the next data set, the system named is cell-free SARS-CoV-2 PsV. Nature of the data set: Inactivation of cell-free SARS-CoV-2 PsV. It counts as cell-based. The conditions noted are these: Severe acute respiratory syndrome coronavirus 2.
The subject of the next data set is H5N1 PsV. Nature of the data set: microbe, parasite or virus in culture. It counts as cell-based, influenza virus. The conditions noted are these: Influenza A virus, H5N1, MDCK, read-out: IC50 H5N1.
The subject of a further data set is H7N9 PsV. Nature of the data set: microbe, parasite or virus in culture. The following applies: Influenza A virus, H7N9, MDCK, read-out: IC50 H7N9. The data set is classed as cell-based, influenza virus.
The test system of data set [7] is SARS-CoV PsV.
The subject of data set [8] is cell-free SARS-CoV PsV.
The test system of data set [9] is MERS-CoV PsV.
In data set [10] the test system is cell-free MERS-CoV PsV.
The nature of the next data set: in vitro. The following applies: dog.
The nature of data set [11]: Cytotoxicity (CCK-8) on Huh-7 cells. The conditions noted are these: human.
The test system of data set [12] is SARS-CoV PsV. Briefly: microbe, parasite or virus in culture. The conditions noted are these: Severe acute respiratory syndrome coronavirus.
Data set [13] deals with cell-free SARS-CoV PsV. Briefly: microbe, parasite or virus in culture. The conditions noted are these: Severe acute respiratory syndrome coronavirus.
The subject of data set [14] is MERS-CoV PsV. Briefly: microbe, parasite or virus in culture. The conditions noted are these: Middle East respiratory syndrome-related coronavirus, Huh-7.
For data set [15], the system named is cell-free MERS-CoV PsV. Briefly: microbe, parasite or virus in culture. The following applies: Middle East respiratory syndrome-related coronavirus, Huh-7.
Data set [16] in a line: Cytotoxicity (CCK-8) on hACE2-293T cells. The following applies: human.
For data set [17], the system named is SARS-CoV-2 PsV. It counts as cell-based.

One may read the IC50 as the concentration that gives 50% inhibition. A word on the EC50: it is the concentration that produces a half-maximal response. A high value points to a less potent agent. As to `C#CCOc1ccc(CCN2C(=O)/C(=C/c3ccc(-c4ccc(Cl)c(C(=O)O)c4)o3)SC2=S)cc1` [FD007], the 50% inhibitory concentration (IC50) is 0.32 µM with SARS-CoV-2 PsV [1]; 0.29 µM in data set [2]; 0.81 µM in data set [3]; 0.53 µM in data set [4]; 3.09 µM in data set [5]; 0.17 µM in data set [6]. In addition, the IC50 worked out at 0.47 ± 0.11 µM in the data set on H5N1 PsV, 2.13 ± 0.2 µM with H7N9 PsV, 0.11 ± 0.01 µM in the data set with SARS-CoV PsV [12] and 0.2 ± 0.03 µM in the data set on MERS-CoV PsV [14]. Moreover, the EC50 in the data set on cell-free SARS-CoV-2 PsV was determined as 0.96 µM; in the data set on cell-free SARS-CoV PsV [13] it was 1.54 ± 0.14 µM; in the data set on cell-free MERS-CoV PsV [15], 0.89 ± 0.09 µM. The “SI CC50/IC50” value with SARS-CoV PsV [7] is reported as 301.00; with MERS-CoV PsV [9], greater than 250. The “SI CC50/EC50” value in the data set on cell-free SARS-CoV PsV [8] is 21.50; in the data set with cell-free MERS-CoV PsV [10], greater than 56.18. Also, in the data set “in vitro”, the CC50 was greater than 50 µM. The CC50 at 48 h in data set [11] was greater than 50 µM; in data set [16], 33.1 ± 1.02 µM.

Regarding `C#CCOCCOc1ccc(CCN2C(=O)/C(=C/c3ccc(-c4ccc(Cl)c(C(=O)O)c4)o3)SC2=S)cc1` [FD008], the IC50 stood at 0.46 µM in the data set on SARS-CoV-2 PsV [1]; 0.34 µM in [2]; 0.42 µM in data set [3]; 0.69 µM in data set [4]; 0.74 µM in [5]; 0.05 µM in data set [6]. Also, the 50% inhibitory concentration (IC50) came out at 0.51 ± 0.14 µM in the data set on H5N1 PsV, 2.51 ± 0.33 µM in the data set on H7N9 PsV, 0.05 ± 0.01 µM in the data set with SARS-CoV PsV [12] and 0.31 ± 0.02 µM in the data set with MERS-CoV PsV [14]. The values for the EC50 in the data set on cell-free SARS-CoV-2 PsV, with cell-free SARS-CoV PsV [13] and in the data set with cell-free MERS-CoV PsV [15] were 0.41 µM, 0.19 ± 0.02 µM and 0.69 ± 0.13 µM, respectively. In addition, the “SI CC50/IC50” value is recorded as 468.80 with SARS-CoV PsV [7] and 125.48 in the data set with MERS-CoV PsV [9]. Besides, the “SI CC50/EC50” value in the data set on cell-free SARS-CoV PsV [8] worked out at 123.37; in the data set with cell-free MERS-CoV PsV [10], 56.38. In “in vitro”, this compound registered a CC50 greater than 50 µM. Also, the CC50 at 48 h is 38.9 ± 1.22 µM in data set [11] and 23.4 ± 0.78 µM in data set [16].

`CCOc1ccc(CCN2C(=O)/C(=C/c3ccc(-c4ccc(Cl)c(C(=O)O)c4)o3)SC2=S)cc1` [FD009]: the concentration for half-maximal inhibition (IC50) in the data set with SARS-CoV-2 PsV [1] came to 0.05 µM; in data set [2], 0.55 µM; in data set [3], 0.24 µM; in data set [4], 0.47 µM; in data set [5] it was 0.58 µM; in data set [6] it was 0.03 µM. Besides, the 50% inhibitory concentration (IC50) was 0.15 ± 0.04 µM with H5N1 PsV, 1.41 ± 0.27 µM in the data set on H7N9 PsV, 0.03 ± 0.01 µM in the data set with SARS-CoV PsV [12] and 0.28 ± 0.02 µM in the data set on MERS-CoV PsV [14]. Besides, the values for the EC50 in the data set with cell-free SARS-CoV-2 PsV, with cell-free SARS-CoV PsV [13] and with cell-free MERS-CoV PsV [15] were 0.16 µM, 0.12 ± 0.01 µM and 0.29 ± 0.02 µM, respectively. Further, the “inhibition of SARS-CoV-2 PsV infection after unbound compound washed from cells” value in the data set with SARS-CoV-2 PsV [17] is “not effective in inhibiting viral infection after washing”. The “SI CC50/EC50” value in the data set with cell-free SARS-CoV PsV [8] is given as 144.75; in the data set on cell-free MERS-CoV PsV [10], 94.97. Also, the “SI CC50/IC50” value in the data set with MERS-CoV PsV [9] was 98.36. Further, in “in vitro”, the CC50 was greater than 50 µM. For the same compound, the CC50 at 48 h was determined as 27.5 ± 1.43 µM in data set [11] and 17.4 ± 0.64 µM in [16].

On to `O=C(O)c1cc(-c2ccc(/C=C3\SC(=S)N(CCc4ccc(OCc5ccc(F)cc5)cc4)C3=O)o2)ccc1Cl` [FD010], for which the IC50 in the data set on SARS-CoV-2 PsV [1] turned out to be 0.36 µM; in data set [2] it was 1.04 µM; in data set [3], 1.55 µM; in [4], 0.87 µM; in data set [5] it was 2.88 µM; in data set [6], 0.04 µM. In addition, the IC50 in the data set on H5N1 PsV was found to be 0.97 ± 0.21 µM; in the data set with H7N9 PsV, 5.88 ± 0.61 µM; with SARS-CoV PsV [12] it was 0.29 ± 0.03 µM; in the data set on MERS-CoV PsV [14], 0.12 ± 0.01 µM. Also, the EC50 in the data set on cell-free SARS-CoV-2 PsV is 0.09 µM; in the data set on cell-free SARS-CoV PsV [13] it was 0.19 ± 0.03 µM; in the data set on cell-free MERS-CoV PsV [15], 0.04 ± 0.01 µM. Besides, the entries for the “SI CC50/IC50” value in the data set with SARS-CoV PsV [7] and with MERS-CoV PsV [9] were 70.41 and 372.25, respectively. In addition, in the data set on cell-free SARS-CoV PsV [8], the “SI CC50/EC50” value came out at 107.47. Besides, the CC50 in “in vitro” is greater than 50 µM. Further, the values for the CC50 at 48 h in data set [11] and in data set [16] were 44.7 ± 1.26 µM and 20.4 ± 1 µM, respectively.

Turning to `O=C(O)c1cc(-c2ccc(/C=C3\SC(=S)N(CCc4ccc(OCc5ccsc5)cc4)C3=O)o2)ccc1Cl` [FD013], the IC50 turned out to be 0.12 µM in the data set with SARS-CoV-2 PsV [1]; 0.4 µM in data set [2]; 0.31 µM in [3]; 0.41 µM in [4]; 0.98 µM in data set [5]; 0.03 µM in data set [6]. For the same compound, the IC50 was determined as 0.26 ± 0.02 µM with H5N1 PsV, 3.54 ± 0.89 µM in the data set on H7N9 PsV, 0.05 ± 0.01 µM in the data set on SARS-CoV PsV [12] and 0.05 ± 0.01 µM with MERS-CoV PsV [14]. Besides, the EC50 with cell-free SARS-CoV-2 PsV came out at 0.07 µM; in the data set with cell-free SARS-CoV PsV [13], 0.1 ± 0.01 µM; in the data set on cell-free MERS-CoV PsV [15] it was 0.03 ± 0.01 µM. Also, the “inhibition of SARS-CoV-2 PsV infection after unbound compound washed from cells” value with SARS-CoV-2 PsV [17] was “not effective in inhibiting viral infection after washing”. In addition, the “SI CC50/IC50” value with SARS-CoV PsV [7] was determined as 372.40; in the data set on MERS-CoV PsV [9] it was 618.00. In addition, the “SI CC50/EC50” value with cell-free SARS-CoV PsV [8] turned out to be 186.20. The compound also registered a CC50 in the data set “in vitro” greater than 50 µM. Further, the CC50 at 48 h is 30.9 ± 0.63 µM in data set [11] and 18.6 ± 0.23 µM in [16].

In the case of `CCC(CC)COC(=O)[C@H](C)N[P@](=O)(OC[C@H]1O[C@@](C#N)(c2ccc3c(N)ncnn23)[C@H](O)[C@@H]1O)Oc1ccccc1` [Remdesivir, remdesivir, reference compound], in [6], the IC50 was 1.09 µM.
